Each structure is given as a SMILES string. Calls of active or inactive are those of the source. The rule behind the calls is not given here.

Data set [1] has as its system 3T3-L1. The data set is described as follows: Anti-adipogenic efficacy in mouse 3T3-L1 cells assessed as inhibition of TG level by Oil Red O staining based light microscopic analysis. It counts as functional, cell-based.
In data set [2] the test system is 3T3-L1. Put plainly: Anti-adipogenic efficacy in mouse 3T3-L1 cells assessed as reduction in FAS protein level by Western blot analysis. It counts as functional, cell-based. As to conditions: dose 0.1-10 µM. A general note: In western blotting, separated proteins are transferred to a membrane and probed.
Data set [3] deals with 3T3-L1. The data set is described as follows: Anti-adipogenic efficacy in mouse 3T3-L1 cells assessed as reduction in SCD-1 mRNA level by RT-qPCR analysis. It counts as functional, cell-based. The conditions noted are these: dose 0.1-10 µM. For orientation: In qPCR the cycle at which signal appears reflects the starting amount.
Data set [4] concerns 3T3-L1. Put plainly: Anti-adipogenic efficacy in mouse 3T3-L1 cells assessed as reduction in C/EBPbeta protein level by Western blot analysis. It counts as functional, cell-based. The conditions noted are these: dose 0.1-10 µM.
The test system of data set [5] is 3T3-L1. Put plainly: Anti-adipogenic efficacy in mouse 3T3-L1 cells assessed as increase in p-ACC level at 0.1 to 10 uM by Western blot analysis. It counts as functional, cell-based. The conditions noted are these: dose 0.1-10 µM.
Data set [6] concerns 3T3-L1. Put plainly: Cytotoxicity against mouse 3T3-L1 cells assessed as reduction in cell viability at 20 uM by CCK-8 assay. It counts as toxicity, cell-based. As to conditions: 3t3-l1, 20 µM. Background: Tetrazolium dyes change colour on reduction, which living cells bring about.
The test system of data set [7] is 3T3-L1. Put plainly: Anti-adipogenic efficacy in mouse 3T3-L1 cells assessed as inhibition of TG level at 1 uM by Oil Red O staining based light microscopy analysis. It counts as functional, cell-based.
Data set [8] deals with 3T3-L1. The data set is described as follows: Anti-adipogenic efficacy in mouse 3T3-L1 cells assessed as increase in p-AMPK level at 0.1 to 10 uM by Western blot analysis. The conditions noted are these: dose 0.1-10 µM. It counts as functional, cell-based.
The test system of data set [9] is 3T3-L1. Put plainly: Anti-adipogenic efficacy in mouse 3T3-L1 cells assessed as reduction in SCD-1 protein level by Western blot analysis. It counts as functional, cell-based. As to conditions: dose 0.1-10 µM.
For data set [10], the system named is 3T3-L1. Put plainly: Anti-adipogenic efficacy in mouse 3T3-L1 cells assessed as reduction in FAS mRNA level by RT-qPCR analysis. It counts as functional, cell-based. As to conditions: dose 0.1-10 µM.
For data set [11], the system named is 3T3-L1. Put plainly: Anti-adipogenic efficacy in mouse 3T3-L1 cells assessed as reduction in C/EBPbeta mRNA level by RT-qPCR analysis. It counts as functional, cell-based. As to conditions: dose 0.1-10 µM.
Data set [12] deals with 3T3-L1. The data set is described as follows: Anti-adipogenic efficacy in mouse 3T3-L1 cells assessed as reduction in PPARgamma mRNA level by RT-qPCR analysis. As to conditions: dose 0.1-10 µM. It counts as functional, cell-based.
Data set [13] concerns 3T3-L1. The data set is described as follows: Anti-adipogenic efficacy in mouse 3T3-L1 cells assessed as reduction in PPARgamma protein level by Western blot analysis. It counts as functional, cell-based. As to conditions: dose 0.1-10 µM.

On to `C=C1C[C@]23O[C@@](O)([C@@]4(O)C[C@H](C)[C@H](OC(=O)c5ccccc5)[C@@H]4[C@H]1OC(=O)c1ccccc1)[C@]1(C)O[C@](C)(CC2=O)C[C@H]31`, for which, in the data set on 3T3-L1 [1], the EC50 turned out to be 360 nM.

`C=C1C[C@]2(O)C(=O)C(C)(C)C[C@H]2C2=CC(=O)[C@]3(C[C@H](C)[C@H](OC(=O)c4ccccc4)[C@@H]3[C@H]1OC(=O)c1ccccc1)O2`: the EC50 in the data set with 3T3-L1 [1] is 200 nM.

Regarding `CC1=C[C@@H]2C(=O)[C@]3(C=C(C)[C@H](OC(=O)C(C)C(C)C)[C@@]3(O)[C@@H]1O)[C@H](C)C[C@@H]1[C@H]2C1(C)C` (stereo not given in full), the Activity result in the data set on 3T3-L1 [2] was “Dose-Dependent Effect”; in the data set on 3T3-L1 [3], “Dose-Dependent Effect”; in the data set on 3T3-L1 [4], “Dose-Dependent Effect”; in the data set on 3T3-L1 [6], “Non-Toxic”; in the data set on 3T3-L1 [9], “Dose-Dependent Effect”; in the data set with 3T3-L1 [10], “Dose-Dependent Effect”. The Activity entry with 3T3-L1 [11], in the data set with 3T3-L1 [12] and in the data set with 3T3-L1 [13] was “Dose-Dependent Effect” each time. Also, the result in the data set with 3T3-L1 [5], with 3T3-L1 [7] and in the data set with 3T3-L1 [8] was Active. In addition, the EC50 with 3T3-L1 [1] amounted to 600 nM.

The EC50 is the concentration giving half of the maximal effect.

For the origin of these results see ChEMBL document CHEMBL5390286, “Discovery of Ingenane Diterpenoids from Euphorbia hylonoma as Antiadipogenic Agents” (J Nat Prod, 2023).
